Assay results as given in PubChem BioAssay (NCI).
Where “and” joins values, the source holds several entries; their conditions need not be identical. Equal values may be shown once.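 Growth conditions: 96-well plates. Treatment: test compound, 48 hours, 5 concentrations. Analysis: linear interpolation between bracketing concentrations; unreached endpoints set to highest concentration. GI50 marks 50% less growth. Definition used: TGI = concentration required for complete inhibition of growth.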

How the values were obtained:
Assay in all cases: inhibition of tumour cell growth, NCI panel, 48 h
[1] = tested on: A549 NSCLC
[2] = tested on: CAKI-1 renal
[3] = tested on: HCT-15 colon
[4] = tested on: IGROV1 ovarian
[5] = tested on: MALME-3M melanoma
[6] = tested on: NCI-H522 lung
[7] = tested on: RXF 393 renal
[8] = tested on: SF-268 CNS
[9] = tested on: SK-MEL-5 melanoma
[10] = tested on: UACC-62 melanoma

SMILES | TGI [1] [µM] | TGI [2] [µM] | TGI [3] [µM] | TGI [4] [µM] | TGI [5] [µM] | TGI [6] [µM] | TGI [7] [µM] | TGI [8] [µM] | TGI [9] [µM] | TGI [10] [µM] | GI50 [2] | GI50 [6]
Clc1ccc(C2=NN=C3C(c4ccccc4)=Nc4ccccc4N3C2)cc1 | > 100 | > 100 | > 100 | > 100 | > 82 | 8.17 | > 46.2 | > 93.9 | 16.5 | > 100 | – | –
c1cc2c(cc1NC1=NCCO1)OCO2 | > 100 | > 100 | > 100 | > 100 | > 100 | > 100 | > 100 | > 100 | > 100 | > 100 | – | –
CC(C)(C)OC(=O)NC1CC2(C=C(Br)C(=O)C(Br)=C2)OC1=O (configuration not stated) | 38.7 | 11.6 | 23 | 31.2 | 18.9 | 3.92 | 11.8 | 32.2 | 31.1 | 32.4 | – | –
Nc1[nH]nc(Nc2ccc(Cl)cc2)c1P(=O)(c1ccccc1)c1ccccc1 | > 100 | > 100 | 98.4 | 55.2 | 47.9 | 48.5 | 53.9 | 33.8 | 67.7 | 56.4 | – | –
CN1C/C(=C\c2cccs2)C(O)/C(=C/c2cccs2)C1 (configuration not stated) | > 100 | > 100 | > 100 | > 100 | > 100 | > 100 | > 100 | > 100 | > 100 | > 100 | – | –
COc1ccc(-n2[nH]nc(C(N)=O)c2=O)cc1 | > 100 | > 100 | > 100 | > 100 | > 100 | > 100 | > 100 | > 100 | > 100 | > 100 | – | –
C=C(C(=O)O)[C@@H]1C[C@@H]2O[C@H]1[C@@H](O)[C@@H](C)CCCC(C)=CCC[C@@]2(C)O | > 100 | > 100 | > 100 | > 100 | > 100 | > 100 | > 100 | > 100 | > 100 | > 100 | 37.2 µM and > 100 µM | 29.3 µM and 67.6 µM
Cc1ccccc1OC(C)C(=O)NN1C(=O)CSC1c1ccc(Cl)cc1 (configuration not stated) | > 100 | > 100 | > 100 | > 100 | > 100 | > 29.4 | > 86.9 | > 67.4 | > 100 | > 100 | – | –
CC(=O)OCC1OC(n2cc(F)c(=O)[nH]c2=O)C(NC(=O)OCc2ccccc2)C(OC(C)=O)C1OC(C)=O (configuration not stated) | > 100 | > 100 | > 100 | > 100 | > 100 | > 100 | > 100 | > 100 | > 100 | > 100 | – | –
CN(C(=O)C12C3C4C5C3C1(C(=O)C13C6C7C8C6C1C8C73)C5C42)C(C)(C)C (configuration not stated) | > 50 | > 50 | > 32.2 | > 50 | > 50 | > 50 | > 50 | > 50 | > 50 | > 50 | – | –
CN(C)CCNC(=O)c1ccc(NCCCN(C)CCCNc2ccc(C(=O)NCCN(C)C)c3[nH]c4ccccc4c(=O)c23)c2c(=O)c3ccccc3[nH]c12 | 0.313 | 2.59 | 4.52 | 2.07 | 0.302 | 0.143 | 1.15 | 0.271 | 1.5 | 0.353 | – | –
O=S(=O)(Nc1nc2ccccc2nc1Nc1ccc2ccccc2c1)c1ccccc1 | > 100 | 99 | > 57.5 | > 57.9 | > 100 | 39.6 | 86.1 | > 67.7 | 42.6 | 43.8 | – | –
Cc1nc(C)c(N2CCN(S(=O)(=O)N(Cc3ccccc3)Cc3ccccc3)CC2)c(=O)[nH]1 | > 100 | > 47.9 | > 100 | > 100 | > 100 | 65.1 | 38 | > 75 | > 100 | > 100 | – | –
CS(=O)(=O)OCCN(CCOS(C)(=O)=O)c1ccc(C=Nc2cccc(Cl)c2)cc1 | 29.2 | 1.56 | 10 | > 87.8 | 33.2 | 2.84 | > 100 | > 100 | 22.6 | 15.6 | – | –
N#CN/C(N)=N/C/N=C(\N)NC#N | > 100 | > 100 | 50.2 | > 100 | > 100 | > 100 | > 100 | > 100 | > 100 | > 100 | – | –
O=C(/C=C/c1ccccc1)CSc1ncn[nH]1 | > 100 | > 100 | > 100 | > 100 | > 100 | > 100 | > 100 | > 100 | > 100 | > 100 | – | –
C/C(=N\N=C(\N)SB(F)F)c1ccc2ccccc2c1 | > 100 | > 100 | > 100 | > 100 | > 100 | 72 | > 100 | > 100 | > 100 | > 100 | – | –
